The values that follow come from the supplement of paper PMC10307832.

What all share (assay): relative viability (nuclei count vs DMSO), 5 days (fraction); higher = more cells survive
Compound in test [1]: Cc1ccc2nc(NCCN)c3ncc(C)n3c2c1 + CS(=O)(=O)N1CCN(Cc2cc3nc(-c4cccc5[nH]ncc45)nc(N4CCOCC4)c3s2)CC1 [Pictilisib] (partner 1 µM)
The gist of the method:
(§1)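 A single step with final 0.05% Triton X-100, 1% formaldehyde and 1 ug/ml Hoechst fixed the cells and stained nuclei 5 days after treatment. Lung cancer cell lines in 1536-well plates had been treated by pin tool the day after seeding with one drug alone or a fixed anchor-drug dose plus five library-drug doses (not always all listed) in √10 steps, and nuclei were counted on 4× images. Relative viability is the ratio of nuclei in treated wells to nuclei in vehicle wells, taken as the median of duplicate plates.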

Compound in the test “Salubrinal + Pemetrexed”: O=C(/C=C/c1ccccc1)NC(NC(=S)Nc1cccc2cccnc12)C(Cl)(Cl)Cl [Salubrinal] + Nc1nc2[nH]cc(CCc3ccc(C(=O)N[C@@H](CCC(=O)O)C(=O)O)cc3)c2c(=O)[nH]1 [Pemetrexed] (partner 0.2 µM)
The gist of the method:
as §1

Compound in the test “Salubrinal + Foretinib”: O=C(/C=C/c1ccccc1)NC(NC(=S)Nc1cccc2cccnc12)C(Cl)(Cl)Cl [Salubrinal] + COc1cc2c(Oc3ccc(NC(=O)C4(C(=O)Nc5ccc(F)cc5)CC4)cc3F)ccnc2cc1OCCCN1CCOCC1 [Foretinib] (partner 0.25 µM)
In outline:
as §1

Compound in test [2]: Cc1ccc2nc(NCCN)c3ncc(C)n3c2c1 + N=C(N)NC(=N)NCCc1ccccc1 [Phenformin] (partner 250 µM)
The gist of the method:
as §1

Regarding UMC-11, the relative viability is 0.857 in test [1] (first compound 0.04 µM); 0.692 in test [1] (first compound 0.1265 µM); 0.808 in test [1] (first compound 0.4 µM); 0.813 in test [1] (first compound 1.265 µM); 0.708 in test [1] (first compound 4 µM); 0.766 with Salubrinal + Pemetrexed (first compound 0.08 µM). The relative viability with Salubrinal + Pemetrexed (first compound 0.253 µM) was found to be 0.675; with Salubrinal + Pemetrexed (first compound 0.8 µM), 0.968; with Salubrinal + Pemetrexed (first compound 2.53 µM) it was 0.729; with Salubrinal + Pemetrexed (first compound 8 µM), 0.726; with Salubrinal + Foretinib (first compound 0.08 µM) it was 1.17; with Salubrinal + Foretinib (first compound 0.253 µM) it was 1. Moreover, the relative viability in the test with Salubrinal + Foretinib (first compound 0.8 µM) turned out to be 1.13; with Salubrinal + Foretinib (first compound 2.53 µM), 1.1; with Salubrinal + Foretinib (first compound 8 µM) it was 1.21; in test [2] (first compound 0.04 µM), 0.352; in test [2] (first compound 0.1265 µM), 0.319; in test [2] (first compound 0.4 µM), 0.333. The relative viability stood at 0.335 in test [2] (first compound 1.265 µM) and 0.349 in test [2] (first compound 4 µM).
